Results on 78 compounds are retold here after PubChem BioAssay AID720570 (Broad Institute, 2013).

Each structure is given as a SMILES string. Several values for one entry are separate records, joined by “and”; a condition that tells them apart may be missing. Identical values can stand only once. Activity calls are given as the source filed them.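 The calls were made as follows: active = cell-killing curve crosses a set limit at a concentration no more than twice the top valid dose; inconclusive = flat curve with a 30 to 70% loss, or a poor fit; inactive = signal rising instead of falling, and the rest.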

This assay deals with TC71 Ewing sarcoma viability, CellTiter-Glo ATP, 72 h. Kind of assay: cytotoxicity in EWS/Fli1-dependent TC71 cells – cell-based, luminescence, cherry-picked samples, retest, confirmation (AID 720570).
As to `Oc1c(Cl)cc(Cl)c2cccnc12`, the AC35 was 20.7 µM.
For `COc1ccccc1NC(=O)N1[C@@H]2CNC[C@H]1[C@@H]2c1ccc(-c2ccc(C#N)cc2)cc1`, the AC35 is > 23.5 µM (inactive).
With `COc1ccc(S(=O)(=O)Nc2ccc3c(c2)C(=O)N([C@H](C)CO)C[C@@H](C)[C@@H](CN(C)Cc2ccc(C(=O)Nc4ccccc4N)cc2)O3)cc1` the figure was 18.5 µM; with `C[C@H](CO)N1C[C@H](C)[C@H](CN(C)CC2CCCCC2)Oc2ccc(NC(=O)CCCCCC(=O)Nc3ccccc3N)cc2CC1=O`, 18.9 µM; with `CCc1ccc(/C=C2\SC(=S)N(CCCC(=O)NCCCN3CCOCC3)C2=O)cc1`, 22.6 µM.
With `C[C@H]1CN([C@@H](C)CO)C(=O)c2cc(NS(=O)(=O)c3ccc(Cl)cc3)ccc2O[C@H]1CN(C)Cc1ccc(C(=O)Nc2ccccc2N)cc1` the figure was 14.7 µM.
On to `CN(C)CC1CCC/C(=C\c2ccc(OC(=O)c3ccc(Cl)cc3)cc2)C1=O` (stereo not drawn), for which the AC35 is 3.4 µM.
The value for `CC(=O)OC1CC2(O)C3CCC4CC(O)CCC4(C)C3CCC2(C)C1C1=CC(=O)OC1` (stereo not drawn) was 0.797 µM.
Consider `C[C@H](CO)N1C[C@H](C)[C@H](CN(C)Cc2ccc(Oc3ccccc3)cc2)Oc2ccc(NC(=O)CCCCCC(=O)Nc3ccccc3N)cc2CC1=O`, for which the AC35 was 11.5 µM.
`CC(C)N1C/C(=C/c2ccsc2)C(=O)/C(=C/c2ccsc2)C1`: the AC35 was 14 µM.
The value for `CN(C)c1ncnc2c1ccn2C1OC(CO)C(O)C1O` (stereo not drawn) was 7.06 µM.
Regarding `C[C@@H]1CN([C@@H](C)CO)C(=O)c2cc(NC(=O)Nc3ccccc3)ccc2O[C@@H]1CN(C)Cc1ccc(C(=O)Nc2ccccc2N)cc1`, the AC35 was 6.58 µM.
The value for `COc1ccc(S(=O)(=O)N2CC[C@@H]3[C@@H](CO)Nc4ccc(-c5ccc(C#N)cc5)cc4[C@@H]32)cc1` was 2.52 µM; that for `CC(=O)OC1CC(OC2C(O)CC(OC3C(O)CC(OC4CCC5(C)C(CCC6C5CC(O)C5(C)C(C7=CC(=O)OC7)CCC65O)C4)OC3C)OC2C)OC(C)C1OC1OC(CO)C(O)C(O)C1O` (stereo not drawn) was 0.589 µM; that for `COC1C(O)C(C)OC(OC2CCC3(C)C(CCC4C3C(O)CC3(C)C(C5=CC(=O)OC5)CCC43O)C2)C1O` (stereo not drawn) was 0.699 µM.
With `COc1ccc(/C=C/C(=O)c2ccc(C(=O)/C=C/c3ccc(OC)c(OC)c3)cc2)cc1OC` the figure was 20.4 µM; with `COC(=O)C[C@@H]1CC[C@@H]2[C@H](COc3ccc(NC(=O)c4ccc(C(F)(F)F)cc4)cc3C(=O)N2C)O1`, 9.91 µM; with `C(=Cc1cnc2ccccc2n1)c1ccc2c(c1)OCO2`, 15.2 µM.
The value for `C(=Cc1c[nH]c2ccccc12)c1ccc2ccccc2n1` was 3.86 µM.
As to `C[C@H](CO)N1C[C@H](C)[C@H](CN(C)Cc2ccc(C(=O)Nc3ccccc3N)cc2)Oc2ccc(N(C)C)cc2CC1=O`, the AC35 is 6.82 µM.
With `COc1ccc(C2=NNC(=Nc3cc(S(=O)(=O)N(C)C)ccc3C)SC2)c(OC)c1`, the AC35 was 11.9 µM.
The value for `O=C(Nc1ccc2c(c1)OCO2)N1C[C@@H]2N[C@H](C1)C2c1ccc(C=Cc2ccccc2)cc1` (stereo partly drawn) was 12.8 µM; that for `Nc1ccc(Cn2ccc3c4c(N)nc(N)nc4ccc32)cc1` was 0.0342 µM; that for `O=C(/C=C/c1cc(Br)ccc1O)c1ccco1` was 16.7 µM.
The value for `N#C[C@@H]1[C@H](c2ccc(C#Cc3ccc(F)cc3)cc2)[C@@H](CO)N1C(=O)Nc1ccc(F)cc1` was 10.9 µM; that for `C/C(=C\c1ccccc1)C(=O)N1CCC=CC1=O` was 13.7 µM.
The value for `Nc1nc(N)c(-c2cccc(C(F)(F)F)c2)c(Cc2cccc(C(F)(F)F)c2)n1` was 4.27 µM; that for `OCC1OC(n2ccc3c2ncn2ncnc32)C(O)C1O` (stereo not drawn) was 3.83 µM; that for `Cc1ccc(/C=N/Nc2ccc3ccccc3n2)o1` was 18.4 µM.
With `CCOc1cc(/C=N/Nc2cc(C)nc(-n3nc(C)cc3C)n2)ccc1O`, the AC35 was 7.76 µM.
With `CCCCCCCCNC(C)C(O)c1ccc(SC(C)C)cc1` (stereo not drawn) the figure was 12.1 µM; with `CN(C[C@H]1N[C@@H](CO)[C@@H]1c1ccc(C2=CCCC2)cc1)C(=O)c1ccc(F)cc1`, 3.92 µM.
The value for `C[C@H]1CN([C@@H](C)CO)C(=O)c2cc(N(C)C)ccc2O[C@@H]1CN(C)Cc1ccc(C(=O)Nc2ccccc2N)cc1` was 17.7 µM; that for `C[C@@H]1O[C@@H](O[C@H]2C[C@@H](O)[C@]3(CO)[C@H]4[C@H](O)C[C@]5(C)[C@@H](C6COC(=O)C6)CC[C@]5(O)[C@@H]4CC[C@]3(O)C2)[C@H](O)[C@H](O)[C@H]1O` (stereo partly drawn) was 4.19 µM.
For `C[C@@H]1CCCCO[C@H](CN(C)Cc2ccc(C(=O)Nc3ccccc3N)cc2)[C@@H](C)CN([C@@H](C)CO)C(=O)c2cc(NS(=O)(=O)c3ccc(Cl)cc3)ccc2O1`, the AC35 is 13.6 µM.
The value for `COc1ccc(-c2ccc3c(c2)[C@H]2[C@H](CCN2S(=O)(=O)c2ccc(OC)cc2)[C@@H](CO)N3C)cc1` was 4.48 µM; that for `O=C(NC(c1ccc(F)cc1)c1ccc2ccccc2n1)C1CCN(Cc2cccc(C(F)(F)F)c2)CC1` (stereo not drawn) was 11.2 µM; that for `Cc1ccc(/C=N/Nc2ccnc3cc(Cl)ccc23)c(C)c1` was 11.8 µM.
The value for `O=C1NC(=S)NC(=O)C1=Cc1cccn1-c1ccc(O)cc1` was 22.2 µM.
On to `Nc1sc(-c2ccccc2)cc1-c1n[nH]c(=S)n1C1CCCCC1`, for which the AC35 was 4.99 µM.
The value for `Nc1nc(=S)c2[nH]cnc2[nH]1` was 1.54 µM.
With `C[C@H](CO)N1C[C@H](C)[C@H](CN(C)Cc2ccc(C(=O)Nc3ccccc3N)cc2)Oc2c(cccc2N(C)C)C1=O` the figure was 17.1 µM; with `CC1(C(=O)NCc2ccco2)Cc2c(-c3cccc(C(N)=O)c3)ccnc2O1` (stereo not drawn), 7.99 µM; with `CC(C)(C)c1ccc(Oc2ccc(N)cn2)cc1`, 4.73 µM.
With `CCCCCCCN(c1ccccc1)[C@@H]1C[C@H]2CCCC(=O)N3CC[C@@H](C1)[C@@H]23` the figure was 1.95 µM; with `N#C[C@H]1[C@H](c2ccc(-c3ccccc3F)cc2)[C@@H](CO)N1C(=O)Cc1ccccc1`, 6.75 µM; with `Nc1ccn([C@@H]2O[C@H](CO)[C@@H](O)C2O)c(=O)n1` (stereo partly drawn), 1.22 µM.
On to `C[C@H](O)C#Cc1ccc2c(c1)O[C@@H](CN(C)Cc1ccc(-c3ccccc3)cc1)[C@H](C)CN([C@@H](C)CO)S2(=O)=O`, for which the AC35 was 3.82 µM and 4.62 µM.
With `O=C1/C(=C\c2ccccc2)CN(C(=O)CCN2CCCCC2)C/C1=C/c1ccccc1` the figure was 4.22 µM; with `COc1ccc(Cn2cc3c(-c4ccc(F)cc4)nnc-3c3cc(OC)c(OC)cc32)cc1`, 13.4 µM.
Turning to `CC1(C)Oc2cc3oc(-c4cc(O)cc(O)c4)cc3cc2CC1O` (stereo not drawn), the AC35 is 12.5 µM.
For the compound `CC[C@@H]1C[C@H]2CC[C@H](O2)[C@H](C)C(=O)O[C@@H](C)C[C@@H]2CC[C@@H](O2)[C@@H](C)C(=O)O[C@H](C)C[C@H]2CC[C@H](O2)[C@H](C)C(=O)O[C@@H](C)C[C@@H]2CC[C@@H](O2)[C@@H](C)C(=O)O1`, the AC35 is 0.0639 µM.
Turning to `C[C@@H]1CN([C@@H](C)CO)C(=O)Cc2cc(NS(=O)(=O)c3cccs3)ccc2O[C@H]1CN(C)Cc1ccc(Cl)c(Cl)c1`, the AC35 was 12.3 µM.
Turning to `COc1ccc(NC(=S)N=Nc2c(O)[nH]c3ccccc23)cc1`, the AC35 is 20.1 µM.
The value for `C[C@H]1O[C@@H](O[C@H]2[C@@H](O)C[C@H](O[C@H]3[C@@H](O)C[C@H](O[C@H]4CC[C@@]5(C)[C@H](CC[C@@H]6[C@@H]5C[C@@H](O)[C@]5(C)[C@@H](C7=CC(=O)OC7)CC[C@]65O)C4)O[C@@H]3C)O[C@@H]2C)C[C@H](O)[C@@H]1O` was 0.283 µM; that for `C[C@@H]1CN([C@@H](C)CO)C(=O)c2cccc(NS(=O)(=O)c3ccccc3)c2O[C@@H]1CN(C)Cc1ccc(C(=O)Nc2ccccc2N)cc1` was 11.9 µM.
Regarding `Cc1ccccc1S(=O)(=O)N1CC[C@@H]2[C@@H](CO)Nc3ccc(-c4ccc(C#N)cc4)cc3[C@@H]21`, the AC35 is 4.8 µM.
With `C[C@@H]1CN([C@H](C)CO)C(=O)c2cc(NC(=O)c3ccccc3)ccc2O[C@@H](C)CCCCO[C@H]1CN(C)C(=O)Nc1cccc2ccccc12` the figure was 1.58 µM.
The value for `CC1(C)N=C(N)N=C(N)N1c1ccc(CCCCc2ccccc2)cc1` was 1.39 µM.
The value for `O=c1ccc2[n+]([O-])c3ccc(O)cc3oc-2c1` was 9.82 µM; that for `CC(=O)ON=C1C=CC(=C(C#N)c2ccccc2)C=C1` was 6.03 µM; that for `CCc1ccc(Cn2ncc3c(C(=O)O)cc(C)nc32)cc1` was 20.8 µM.
Turning to `COc1ccc(OC)c(Cc2cnc3nc(N)nc(N)c3c2C)c1`, the AC35 is 0.0778 µM.
The value for `CC(C)Oc1ccc(Br)cc1C(=O)N/N=C/c1c[nH]c2ccccc12` was 20.1 µM; that for `COc1ccc(C2=Nn3c(nnc3-c3ccccc3F)SC2)cc1OC1CCOC1` (stereo not drawn) was 4.93 µM.
As to `CC(=NNc1cc(C)c2ccccc2n1)c1ccccn1`, the AC35 is 1.38 µM.
The value for `COc1ccc(OC)c(/C=C/c2ccnc3ccccc23)c1` was 2.31 µM; that for `C[C@H](CO)N1C[C@H](C)[C@H](CN(C)Cc2ccccc2)Oc2ccc(NC(=O)CCCCCC(=O)Nc3ccccc3N)cc2CC1=O` was 15.1 µM; that for `N=c1ccn2c(n1)O[C@H]1[C@H](O)[C@@H](CO)O[C@H]12` was 3 µM.
`COc1ccc(-c2cn(-c3ccc(OC)cc3)c3[n+]2-c2ccccc2CC3)cc1`: the AC35 is 14.4 µM.
With `COc1ccc(NC(=O)N2CCCCN3[C@H](CO)[C@H](c4ccc(C#CCC(C)C)cc4)[C@H]3C2)cc1`, the AC35 is 12.2 µM.
With `COc1ccc(C(=O)NCCNc2nc3cc(C)cc(C)c3cc2C#N)c(OC)c1` the figure was 15.9 µM.
The value for `C[C@H]1CCCCO[C@H](CN(C)Cc2ccc(C(F)(F)F)cc2)[C@@H](C)CN([C@@H](C)CO)C(=O)c2cc(NC(=O)Nc3ccccc3)ccc2O1` was 12.4 µM; that for `O=C(Nc1ccc(Br)cc1)c1ccc(F)c(S(=O)(=O)N2CCN(c3ccccn3)CC2)c1` was 18.2 µM.
Turning to `Cc1nc2ncccn2c1-c1csc(Nc2ccc(O)cc2)n1`, the AC35 was 4.74 µM.
The value for `COc1cc(C(=O)N2CCC(N3CCN(C)CC3)CC2)ccc1Nc1ncc2c(n1)N(C)c1ccccc1C(=O)N2C` was 11.4 µM; that for `COc1cc(-c2coc3c(C(=O)NCc4ccc(C(F)(F)F)cc4)cccc23)ccc1O` was 4.09 µM.
With `C[C@H]1CN([C@@H](C)CO)C(=O)Cc2cc(NC(=O)CCC(F)(F)F)ccc2O[C@H]1CN(C)Cc1ccc(C(=O)Nc2ccccc2N)cc1` the figure was 9.19 µM.
